Results from ChEMBL document CHEMBL1201862, “PubChem BioAssay data set” (2004).
Structures can show the parent of a compound that is named as a salt.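 Cells were grown in 96-well plates and exposed to each compound for 48 hours at five concentrations; endpoints were interpolated linearly between bracketing concentrations, or set to the highest concentration if not reached. Abbreviation: GI50, concentration required for 50% inhibition of growth.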 Activity calls are given as the source filed them. Cut-off read from the data, not from the text of the source: active = GI50 up to about 1.1 µM and inactive = higher.

Experiments:
Experiment in all cases: growth of human tumour cells (NCI), 48 h
[1] = tested on: MDA-MB-231
[2] = tested on: COLO 205
[3] = tested on: NCI-H460
[4] = tested on: RPMI-8226
[5] = tested on: K562
[6] = tested on: MDA-MB-435
[7] = tested on: HCC 2998
[8] = tested on: OVCAR-4
[9] = tested on: Hs-578T
[10] = tested on: SF-295
[11] = tested on: HT-29
[12] = tested on: CCRF-CEM
[13] = tested on: DU-145
[14] = tested on: MDA-N
[15] = tested on: KM12
[16] = tested on: CAKI-1
[17] = tested on: SN12C
[18] = tested on: HCT-116
[19] = tested on: OVCAR-3
[20] = tested on: U-251

Row | SMILES | GI50 [1] | GI50 [2] | GI50 [3] | GI50 [4] | GI50 [5] | GI50 [6] | GI50 [7] | GI50 [8] | GI50 [9] | GI50 [10] | GI50 [11] | GI50 [12] | GI50 [13] | GI50 [14] | GI50 [15] | GI50 [16] | GI50 [17] | GI50 [18] | GI50 [19] | GI50 [20]
1 | O=C1N=C2SC=C(NC(=S)Nc3ccccc3)N2NC12c1ccccc1-c1ccccc12 | > 10 µM (inactive) | > 10 µM (inactive) | > 10 µM (inactive) | > 10 µM (inactive) | > 10 µM (inactive) | > 10 µM (inactive) | > 10 µM (inactive) | > 10 µM (inactive) | > 10 µM (inactive) | > 10 µM (inactive) | > 10 µM (inactive) | > 10 µM (inactive) | > 10 µM (inactive) | > 10 µM (inactive) | > 10 µM (inactive) | > 10 µM (inactive) | > 10 µM (inactive) | > 10 µM (inactive) | – | –
2 | CSc1c(C(=O)Nc2ccccc2)c(N)n(N)c(=O)c1C#N | > 100 µM (inactive) | > 100 µM (inactive) | > 100 µM (inactive) | > 100 µM (inactive) | > 100 µM (inactive) | > 100 µM (inactive) | > 100 µM (inactive) | > 100 µM (inactive) | > 100 µM (inactive) | – | > 100 µM (inactive) | > 100 µM (inactive) | > 100 µM (inactive) | > 100 µM (inactive) | > 100 µM (inactive) | > 100 µM (inactive) | > 100 µM (inactive) | > 100 µM (inactive) | > 100 µM (inactive) | > 100 µM (inactive)
3 | Cc1c(NC(=S)Nc2ccc([N+](=O)[O-])cc2)c(=O)n(-c2ccccc2)n1C | > 100 µM (inactive) | > 100 µM (inactive) | > 100 µM (inactive) | 16.6 µM (inactive) | 69.5 µM (inactive) | > 100 µM (inactive) | > 100 µM (inactive) | – | > 100 µM (inactive) | > 100 µM (inactive) | > 100 µM (inactive) | > 100 µM (inactive) | > 100 µM (inactive) | > 100 µM (inactive) | > 100 µM (inactive) | > 100 µM (inactive) | – | > 100 µM (inactive) | > 100 µM (inactive) | > 100 µM (inactive)
4 | CC(C(N)C(=O)NC(C(=O)O)C1OC(n2ccc(=O)[nH]c2=O)C(O)C1O)C(O)c1ccc(O)cn1 (stereo not drawn) | > 100 µM (inactive) | > 100 µM (inactive) | > 100 µM (inactive) | > 100 µM (inactive) | – | > 100 µM (inactive) | > 100 µM (inactive) | – | > 100 µM (inactive) | > 100 µM (inactive) | > 100 µM (inactive) | > 100 µM (inactive) | > 100 µM (inactive) | > 100 µM (inactive) | > 100 µM (inactive) | > 100 µM (inactive) | > 100 µM (inactive) | > 100 µM (inactive) | > 100 µM (inactive) | > 100 µM (inactive)
5 | Cn1c(=O)[nH]c2sc3c(c2c1=N)CCCC3 | > 75 µM (inactive) | > 75 µM (inactive) | > 75 µM (inactive) | 50.1 µM (inactive) | > 75 µM (inactive) | > 75 µM (inactive) | 58.9 µM (inactive) | > 75 µM (inactive) | > 75 µM (inactive) | > 75 µM (inactive) | > 75 µM (inactive) | – | > 75 µM (inactive) | > 75 µM (inactive) | > 75 µM (inactive) | > 75 µM (inactive) | > 75 µM (inactive) | > 75 µM (inactive) | > 75 µM (inactive) | > 75 µM (inactive)
6 | CCOc1cc(NC(C)=O)ccc1C(=O)NN1C(=O)CSC1c1ccccc1 (stereo not drawn) | > 100 µM (inactive) | 75 µM (inactive) | > 100 µM (inactive) | 26.1 µM (inactive) | 28.8 µM (inactive) | > 100 µM (inactive) | > 100 µM (inactive) | 84.1 µM (inactive) | > 100 µM (inactive) | 45.2 µM (inactive) | > 100 µM (inactive) | 37.8 µM (inactive) | > 100 µM (inactive) | 84.9 µM (inactive) | 71.4 µM (inactive) | > 100 µM (inactive) | > 100 µM (inactive) | > 100 µM (inactive) | 96.6 µM (inactive) | –
7 | CC(=O)Oc1ccc2c(c1)[nH]c1c3ccc(OC(C)=O)cc3oc(=O)c21 | 29.2 µM (inactive) | 30.7 µM (inactive) | 22.6 µM (inactive) | – | 26.5 µM (inactive) | 27.2 µM (inactive) | 26.5 µM (inactive) | 42.4 µM (inactive) | 31.3 µM (inactive) | 44.1 µM (inactive) | 34.2 µM (inactive) | 19.3 µM (inactive) | 33.3 µM (inactive) | 33.3 µM (inactive) | 29.1 µM (inactive) | 52.4 µM (inactive) | 30.5 µM (inactive) | 23.3 µM (inactive) | 24.8 µM (inactive) | 30.5 µM (inactive)
8 | O=C1c2cc([N+](=O)[O-])ccc2NC2C(O)c3ccccc3N12 (stereo not drawn) | 31.6 µM (inactive) | 61.8 µM (inactive) | 26.4 µM (inactive) | 18.5 µM (inactive) | 22.2 µM (inactive) | 52.8 µM (inactive) | 47.9 µM (inactive) | 19.7 µM (inactive) | 0.706 µM (active) | 30.1 µM (inactive) | 80.4 µM (inactive) | – | 9.55 µM (inactive) | 69.5 µM (inactive) | 42.7 µM (inactive) | 21.6 µM (inactive) | 48.9 µM (inactive) | 30.8 µM (inactive) | 20.4 µM (inactive) | 23.5 µM (inactive)
9 | CC1(C)C2CC(=O)C1(C)C(O)C2Br (stereo not drawn) | > 100 µM (inactive) | – | > 100 µM (inactive) | – | > 100 µM (inactive) | > 100 µM (inactive) | > 100 µM (inactive) | – | 98.2 µM (inactive) | > 100 µM (inactive) | > 100 µM (inactive) | > 100 µM (inactive) | > 100 µM (inactive) | > 100 µM (inactive) | > 100 µM (inactive) | – | > 100 µM (inactive) | > 100 µM (inactive) | > 100 µM (inactive) | > 100 µM (inactive)
10 | CCC1C(=O)C(O)[C@H]2[C@@H]3C(O)CC4=CC(=O)CC[C@]4(C)[C@H]3CC[C@]12C (stereo partly drawn) | > 50 µM (inactive) | > 50 µM (inactive) | > 50 µM (inactive) | > 50 µM (inactive) | > 50 µM (inactive) | > 50 µM (inactive) | > 50 µM (inactive) | – | > 50 µM (inactive) | > 50 µM (inactive) | > 50 µM (inactive) | > 50 µM (inactive) | > 50 µM (inactive) | > 50 µM (inactive) | > 50 µM (inactive) | > 50 µM (inactive) | > 50 µM (inactive) | > 50 µM (inactive) | > 50 µM (inactive) | > 50 µM (inactive)
11 | CC(C)(C)c1ccc2c(c1)C#Cc1cc(C(C)(C)C)ccc1OCCCO2 | > 100 µM (inactive) | > 100 µM (inactive) | > 100 µM (inactive) | > 100 µM (inactive) | > 100 µM (inactive) | > 100 µM (inactive) | – | > 100 µM (inactive) | > 100 µM (inactive) | > 100 µM (inactive) | > 100 µM (inactive) | > 100 µM (inactive) | > 100 µM (inactive) | > 100 µM (inactive) | > 100 µM (inactive) | > 100 µM (inactive) | > 100 µM (inactive) | > 100 µM (inactive) | > 100 µM (inactive) | > 100 µM (inactive)
12 | Cc1ccc(C)c(NC(=O)C(=O)C2C(=O)C3=C(CC2(C)C)Nc2ccccc2S3)c1 (stereo not drawn) | 97.1 µM (inactive) | > 100 µM (inactive) | > 100 µM (inactive) | – | – | > 100 µM (inactive) | > 100 µM (inactive) | > 100 µM (inactive) | 69.2 µM (inactive) | 58.9 µM (inactive) | > 100 µM (inactive) | 70.6 µM (inactive) | 93.5 µM (inactive) | > 100 µM (inactive) | > 100 µM (inactive) | > 100 µM (inactive) | > 100 µM (inactive) | > 100 µM (inactive) | 55.6 µM (inactive) | 87.9 µM (inactive)
13 | O=C1/C(=C/c2ccccc2[N+](=O)[O-])N=C(c2ccccc2)N1c1nc2ccccc2s1 | 45.9 µM (inactive) | – | 27 µM (inactive) | 9.82 µM (inactive) | 15 µM (inactive) | 19.4 µM (inactive) | 17.8 µM (inactive) | 19.4 µM (inactive) | 19.1 µM (inactive) | 40.2 µM (inactive) | 35.4 µM (inactive) | < 0.01 µM (active) | 20.9 µM (inactive) | 26.1 µM (inactive) | 17.9 µM (inactive) | 34.1 µM (inactive) | 25 µM (inactive) | 17.9 µM (inactive) | 21.1 µM (inactive) | 29.4 µM (inactive)
14 | OC1CCCCCCCCCCC1[S+]1CCCC1.O[B-](F)(F)F (stereo not drawn) | > 100 µM (inactive) | 62.7 µM (inactive) | > 100 µM (inactive) | 36.1 µM (inactive) | 29.6 µM (inactive) | > 100 µM (inactive) | > 100 µM (inactive) | 85.9 µM (inactive) | > 100 µM (inactive) | > 100 µM (inactive) | 88.9 µM (inactive) | > 100 µM (inactive) | > 100 µM (inactive) | > 100 µM (inactive) | > 100 µM (inactive) | > 100 µM (inactive) | > 100 µM (inactive) | > 100 µM (inactive) | 52.5 µM (inactive) | > 100 µM (inactive)
15 | NCCCNCCCCNCCCN [SPERMINE TETRAHYDROCHLORIDE] | > 43.6 µM (inactive) | 4.67 µM (inactive) | > 100 µM (inactive) | 0.284 µM (active) | 2.33 µM (inactive) | > 41.2 µM (inactive) | > 48.5 µM (inactive) | – | 11.9 µM (inactive) | > 100 µM (inactive) | 15.6 µM (inactive) | 3.67 µM (inactive) | 10.6 µM (inactive) | 15.2 µM (inactive) | > 100 µM (inactive) | 5.97 µM (inactive) | 4.41 µM (inactive) | 2.73 µM (inactive) | – | > 42 µM (inactive)
